Test system: primary cultures of neonatal cortical neurons exposed to 5 μM Aβ25-35
Test: Protection of cortical neurons against Aβ25-35-induced cell death (MTT reduction analysis)
Type: cell-based, rat
Conditions: for cell death (%): then 5 μM Aβ25-35 for 40 h, MTT, mean ± S.D., three experiments; for protected neurons from Aβ damage by: 5 μM Aβ
Description: In this study, primary cultures of neonatal cortical neurons from the cerebral cortex of Harlan Sprague-Dawley rat pups at postnatal day were used as target cells. Primary cultures of neonatal cortical neurons were prepared from the cerebral cortex of Harlan Sprague-Dawley rat pups at postnatal day 1. Briefly, each pup was decapitated and the cortex was digested in 0.5 mg/mL papain at 37° C. for 15 min. The tissue was dissociated in Hibernate A medium (containing B27 supplement) by aspirating trituration to separate cells. Cells were plated (at the density of 5×10^4 cells/cm^2) onto poly-D-lysine-coated dishes and maintained in Neurobasal medium containing B27 supplement, 10 units/mL penicillin, […], and 0.5 mg/mL glutamine (5% CO2/9% O2) for 3 days. Cells were then exposed to cytosine-β-D-arabinofuranoside (5 μM) for 1 day to inhibit proliferation of non-neuronal cells. The cells were used for the experiment on the fifth day.
The effects of isolated pure compounds on Aβ25-35-treated cell apoptosis were determined by a MTT method for evaluating neuroprotective activity. The mitochondrial dehydrogenase activity was assayed by reduction cleavage of the tetrazolium salt MTT (3-[4,5-dimethylthiazol-2-yl]-2,5-diphenyltetrazolium bromide), to yield a purple dye with absorbance read at about 570 nm. Results are expressed as percentage of control absorbance. Cortical neurons prepared as described above were incubated with vehicle (0.1% DMSO) or various concentrations of the compounds for 2 h then exposed to 5 μM Aβ for 40 h. The cell viability was assessed by MTT reduction analysis. Cells were incubated with minimum essential medium containing 0.5 mg/mL MTT for 1 h. The medium was aspirated, and the formazan particle was dissolved with DMSO. The absorbance at 600 nm was measured using an enzyme-linked immunosorbent assay reader. Results are expressed as means±S.D. and were analyzed by ANOVA with post hoc multiple comparison with a Bonferroni test.

| Compound | cell death (%) (compound 1 μM for 2 h) | cell death (%) (compound 5 μM for 2 h) | cell death (%) (compound 10 μM for 2 h) | cell death (%) (compound 20 μM for 2 h) | protected neurons from Aβ damage by (at concentration of 20 μM) | protected neurons from Aβ damage by (at concentration of 10 μM) | protected neurons from Aβ damage by (at concentration of 5 μM) |
| --- | --- | --- | --- | --- | --- | --- | --- |
| Ac-DEVD-CHO [reference compound] | 35.8 ± 3.5% | 30.2 ± 5.5 % | 24.5 ± 4.6 % | 23.1 ± 1.6 % |  |  |  |
| C=C1CCC2C(C)(CO)C(O)CCC2(C)C1C=CC1=CCOC1=O (centres unmarked) [Compound 5, 14-deoxy-11,12-didehydroandrographolide] | 40.7 ± 3.3% | 35.7 ± 1.9% | 30.8 ± 5.7 % | 29.5 ± 5.0 % | 29.5% |  |  |
| C=C1CC[C@H]2[C@@](C)(CO)CCC[C@]2(C)[C@H]1CCC1=CCOC1=O [Compound 4, 19-hydroxylabda-8(17),13-dien-16,15-olide] | 41.2 ± 3.4% | 34.8 ± 3.2% | 28.9 ± 8.1 % | 32.6 ± 7.2 % |  | 28.9% |  |
| C=C1CC[C@@H]2[C@](C)(CC[C@H](O)[C@]2(C)CO)[C@H]1/C=C/C1CCOC1=O (stereo partly drawn) [Compound 3, 13-epi-3β,19-dihydroxylabda-8(17), 11E-dien-16,15-olide] | 45.1 ± 3.5% | 39.6 ± 3.4% | 36.7 ± 8.7% | 29.3 ± 10.6 % |  | 36.7% |  |
| C=C1CCC2[C@@](C)(CO)CCC[C@]2(C)[C@H]1CCC1CCOC1=O (some centres unmarked) [Compound 1, 19-hydroxylabda-8(17)-en-16,15-olide] | 34.4 ± 3.4% | 25.3 ± 5.7 % | 28.1 ± 5.7 % | 30.8 ± 5.0 % |  |  | 25.3% |
| C=C1CC[C@@H]2[C@](C)(CC[C@H](O)[C@]2(C)CO)[C@H]1/C=C/[C@@H]1CCOC1=O [Compound 2, 3β,19-dihydroxylabda-8(17), 11E-dien-16,15-olide] | 43.8 ± 9.5% | 34.9 ± 2.6% | 29.5 ± 6.4 % | 26.3 ± 9.4 % |  | 29.5% |  |

— patent US7745647B2, “Diterpenes from the fruiting body of Antrodia camphorata and pharmaceutical compositions thereof” (Kang Jian Biotech Corp, Ltd., priority 2006, dated 2010)
